The target in one assay is IRAK4 (Homo sapiens (Human), UniProt Q9NWZ3). Put plainly: IRAK-4 biochemical kinase assay, AlphaScreen format. The settings on record: 1 nM IRAK4, 1.6 μM peptide, 10 μM ATP, 3.5 h at RT; class symbols. The method in brief:
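AlphaScreen read-out: streptavidin beads bind the biotinylated peptide and protein A beads bind the anti-phosphothreonine antibody, so energy transfer reports phosphorylation of the peptide. The kinase is human IRAK-4.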
(In Alpha technology, singlet oxygen from a donor bead excites a nearby acceptor bead.)

A further assay concerns A549 cells. Put plainly: Cell-based assay, IL-6 ELISA quantification in IL-1 beta stimulated A549 cells. The settings on record: 2 ng/ml human IL-1 beta overnight, class symbols, read-out: Celluar Data EC50. Here is the method: The cell-based assays is based on IL-6 ELISA quantification. Briefly, A549 cells are cultured in DMEM with 10% FBS medium. When cells reach 80% confluence they are trypsin treated and seeded in 96-well plate at 2.5×10^4 cells/well. Then, 20 ul of compound serial dilutions (starting at 10 uM, 10 points) are added to the cell plate; incubate for 1 hour at 37 C and stimulated with 2 ng/ml human IL-1 beta 37 C overnight. The next day 100 ul of cell supernatant per well are analyzed on a Human IL-6 Quantikine ELISA kit from R&D Systems.
In general terms: An ELISA detects its analyte on a solid surface through an enzyme-linked reagent.

IRAK4, sequence (Q9NWZ3 whole entry, species assumed): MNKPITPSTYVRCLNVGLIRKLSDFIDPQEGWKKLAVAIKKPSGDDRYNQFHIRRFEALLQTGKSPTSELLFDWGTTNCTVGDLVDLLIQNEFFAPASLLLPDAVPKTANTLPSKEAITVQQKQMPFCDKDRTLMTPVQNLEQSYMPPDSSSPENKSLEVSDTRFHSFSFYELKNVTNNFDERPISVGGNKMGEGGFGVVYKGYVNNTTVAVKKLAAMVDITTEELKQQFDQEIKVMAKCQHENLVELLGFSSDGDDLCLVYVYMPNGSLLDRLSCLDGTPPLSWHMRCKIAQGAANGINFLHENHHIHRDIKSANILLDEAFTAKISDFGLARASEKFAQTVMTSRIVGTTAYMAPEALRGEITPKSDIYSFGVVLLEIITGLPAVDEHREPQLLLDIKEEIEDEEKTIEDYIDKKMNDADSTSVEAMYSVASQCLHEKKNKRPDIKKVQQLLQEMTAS

For `CCOC(=O)CCn1cc2c(n1)C(=O)NCCOCCOc1cc(ccn1)-c1nc(cs1)C(=O)N2` [Example 150], the IC50 against IRAK4 was under 100 nM. Also, in the assay with A549 cells, the EC50 was over 10000 nM.
The matching figures for `O=C1Nc2cn(C3CCOCC3)nc2C(=O)NCCCOCCOc2cc(ccn2)-c2nc1cs2` [Example 121]: under 100 nM and under 10000 nM.
The matching figures for `CC(C)(C)OC(=O)N1CCC(CCn2cc3c(n2)C(=O)NCCOCCOc2cc(ccn2)-c2nc(cs2)C(=O)N3)CC1` [Example 154]: under 100 nM and over 10000 nM.
Turning to `CN1CCCc2cc(ccn2)-c2nc(cs2)C(=O)Nc2cn(C3CCOCC3)nc2C(=O)NCC1` [Example 169], the IC50 on IRAK4 was under 100 nM. In the assay on A549 cells, the EC50 is over 10000 nM.
In the same order, the values of `Cn1cc2c(n1)C(=O)NCCOCCCn1cc(cn1)-c1nc(cs1)C(=O)N2` [Example 135] are under 100 nM and under 1000 nM.
Consider `NC(=O)Cn1cc2c(n1)C(=O)NCCOCCOc1cc(ccn1)-c1nc(cs1)C(=O)N2` [Example 147], for which, on IRAK4, the IC50 was under 1000 nM. Also, the EC50 with A549 cells is over 10000 nM.
In the same order, the values of `O=C1Nc2cn(C3CCOCC3)nc2C(=O)NCCCOCCOc2cc(ccn2)-c2nc1co2` [Example 125] are under 100 nM and under 1000 nM.
In the same order, the values of `O=C1Nc2cn(C3CCOCC3)nc2C(=O)NCCCCNc2cc(ccn2)-c2nc1cs2` [Example 132] are under 100 nM and under 1000 nM.
In the same order, the values of `CN(C)CCn1cc2c(n1)C(=O)NCCOCCOc1cc(ccn1)-c1nc(cs1)C(=O)N2` [Example 111] are under 1000 nM and over 10000 nM.
Consider `O=C1Nc2cn(CCN3CCNCC3)nc2C(=O)NCCOCCOc2cc(ccn2)-c2nc1cs2` [Example 115], for which the IC50 against IRAK4 is under 100 nM. The EC50 in the assay on A549 cells is under 10000 nM.
In the same order, the values of `Cn1cc2c(n1)C(=O)NCCOCCc1cc(ccn1)-c1nc(cs1)C(=O)N2` [Example 133] are under 1000 nM and under 10000 nM.
In the same order, the values of `Cn1cc2c(n1)C(=O)NCCOCCCc1cc(ccn1)-c1nc(cs1)C(=O)N2` [Compound 48] are under 100 nM and under 10000 nM.
The matching figures for `O=C1Nc2cn(CCN3CCOCC3)nc2C(=O)NCCOCCOc2cc(ccn2)-c2nc1cs2` [Example 112]: under 100 nM and under 10000 nM.
`O=C1Nc2cn(C3CCOCC3)nc2C(=O)NCCOCCOc2cc(ccn2)-c2nc1cs2` [Compound 44] showed an IC50 at IRAK4 of under 100 nM. Also, the EC50 in the assay with A549 cells was under 10000 nM.
In the same order, the values of `O=C1Nc2cn(C3CCOCC3)nc2C(=O)NCCOCCNc2cc(ccn2)-c2nc1cs2` [Compound 46] are under 100 nM and under 1000 nM.
In turn, `O=C1Nc2cn(C3CCOCC3)nc2C(=O)NCCOCCc2cc(ccn2)-c2nc1cs2` [Example 134] returned an IC50 at IRAK4 of under 100 nM. Also, in the assay with A549 cells, the EC50 was over 10000 nM.
The matching figures for `Cn1cc2c(n1)C(=O)NCCOCCOc1cc(ccn1)-c1nc(cs1)C(=O)N2` [Compound 43]: under 100 nM and under 10000 nM.
The matching figures for `O=C1Nc2ccccc2OCCCCOCc2cc(ccn2)-c2nc1co2` [Compound 4]: under 100 nM and over 10000 nM.
The compound `O=C1Nc2cn(CCCO)nc2C(=O)NCCOCCOc2cc(ccn2)-c2nc1cs2` [Example 152] showed an IC50 at IRAK4 of under 100 nM. Also, the EC50 in the assay on A549 cells is over 10000 nM.
In the case of `CN1CCN(CCn2ncc3c2C(=O)NCCOCCNc2cc(ccn2)-c2nc(cs2)C(=O)N3)CC1` [Example 142], at IRAK4, the IC50 was under 1000 nM. The EC50 in the assay with A549 cells is over 10000 nM.
The matching figures for `Cn1cc2c(n1)C(=O)NCCOCCNc1cc(ccn1)-c1nc(cs1)C(=O)N2` [Compound 45]: under 100 nM and under 1000 nM.
In turn, `O=C1Nc2cn(CCN3CCNCC3)nc2C(=O)NCCOCCNc2cc(ccn2)-c2nc1cs2` [Example 145] registered an IC50 against IRAK4 of under 100 nM. In addition, the EC50 in the assay on A549 cells is under 10000 nM.
In the same order, the values of `O=C1Nc2cn(C3CCOCC3)nc2C(=O)NCCOCCCCc2cc(ccn2)-c2nc1cs2` [Example 218] are under 100 nM and under 10000 nM.
The matching figures for `CCn1cc2c(n1)C(=O)NCCOCCOc1cc(ccn1)-c1nc(cs1)C(=O)N2` [Example 139]: under 100 nM and over 10000 nM.
`O=C1Nc2ccncc2C(=O)NCCOCCOc2cc(ccn2)-c2nc1cs2` [Example 129] came in with an IC50 against IRAK4 of under 100 nM. For the same compound, the EC50 in the assay with A549 cells was under 1000 nM.
`CN1CCN(CCn2cc3c(n2)C(=O)NCCOCCNc2cc(ccn2)-c2nc(cs2)C(=O)N3)CC1` [Example 143] yielded an IC50 on IRAK4 of under 100 nM. For the same compound, the EC50 in the assay on A549 cells is under 10000 nM.
`O=C1Nc2ccccc2OCCCCCCn2cc(cn2)-c2nc1co2` [Compound 7]: at IRAK4, the IC50 is under 100 nM. Further, the EC50 with A549 cells was under 10000 nM.

As usually defined, the IC50 is the concentration that inhibits the measured activity by half. Lower therefore signals greater potency. The EC50 is the concentration at which the effect is half-maximal.

Values taken from patent US9617282B2, “Macrocyclic compounds as IRAK4 inhibitors for the treatment of inflammatory diseases” (BIOGEN MA INC., priority 2013, dated 2017).
